Earlier results on one compound are cited in PMC9255981 (The Oncologist, 2022).

This data set relates to patients. Particulars: phase I study ref [1],[2].

`C=CC(=O)N1CCN(c2nc(=O)n(-c3c(C)ccnc3C(C)C)c3nc(-c4c(O)cccc4F)c(F)cc23)[C@@H](C)C1` [sotorasib]: the “Myalgia, regardless of causality” value was 10 % of patients; the “blood CPK increase” value is recorded as 3.9%; the “most frequent treatment-related AEs (>10%)” value is “diarrhea, AST increased, and ALT increased”. The “grade of blood CPK increase events” value (all events) is reported as 1.
